Test results published in US11384078B2, “5,6-fused-bicyclic compounds and compositions for the treatment of parasitic diseases” (NOVARTIS AG, priority 2017, dated 2022).

What was measured:
Assay type in all cases: cell-based
[1] = tested on: Leishmania donovani axenic amastigote; assay: In vitro assay for growth inhibition of Leishmania donovani axenic amastigote (Cell TiterGlo luminescence); settings: Leishmania donovani, L. donovani axenic amastigotes in vitro; read-out: L. donovani amastigotes EC50
Procedure, shortened: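 Axenic L. donovani amastigotes (9600/well) grown at 37 °C, 5% CO2 in supplemented RPMI 1640, pH 5.5, with compound added from DMSO. After two days, viability read by CellTiter-Glo luminescence against DMSO and control-compound wells.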

[2] = tested on: L. donovani HU3 strain in mouse peritoneal macrophages; assay: Assay for inhibition of parasitemia of Leishmania donovani in mouse macrophages (SYBR Green nuclei count, high-content imaging); settings: Leishmania donovani, Peritoneal macrophage, L. donovani in mouse peritoneal macrophages; read-out: L. donovani in Mouse Macrophages EC50
Procedure, shortened: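 Peritoneal macrophages from uninfected BALB/c mice were infected for 24 h with spleen-derived L. donovani HU3 (4×10^5 parasites per 2×10^4 macrophages), then cultured with compound for 5 days at 37° C, 5% CO2. After fixation and permeabilization, parasite nuclei were stained with SYBR Green and counted by high-content imaging.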

[3] = tested on: Trypanosoma cruzi amastigotes cultured in 3T3 fibroblast cells; assay: Assay for growth inhibition of kinetoplastid parasite Trypanosoma cruzi (beta-galactosidase Tulahuen strain, CPRG readout); settings: Trypanosoma cruzi, Fibroblast, T. cruzi amastigotes in 3T3 fibroblast cells; read-out: Buckner infectious T. cruzi EC50
Procedure, shortened: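 3T3 fibroblasts (1,000 cells/well) plated overnight, treated with compound in DMSO, then infected with 10,000 Lac-Z-expressing Tulahuen trypomastigotes. After 6 days, 0.6 mM CPRG with 0.6% NP-40 added for 2 h at room temperature; absorbance gives relative intracellular amastigote numbers. Benznidazole and nifurtimox serve as positive controls.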

[4] = tested on: Trypanosoma brucei brucei (Lister 427) strain; assay: Assay for growth inhibition against Trypanosoma brucei brucei (Cell TiterGlo ATP luminescence); settings: Trypanosoma brucei, T. brucei brucei (Lister 427); read-out: T. Brucei (HAT) EC50
Procedure, shortened: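 T. b. brucei Lister 427 grown in HMI-9 with 10% FBS and 10% serum plus, seeded at 10,000 parasites/mL with 10-point threefold compound dilutions in duplicate, 37 °C for 2 days. Viability read as ATP luminescence 30 min after Cell TiterGlo; IC50 versus untreated controls.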

SMILES	EC50 [1]	EC50 [2]	EC50 [3]	EC50 [4]
O=C(Nc1ccc(F)c(-n2cc3cc(-c4ncccc4F)cnc3n2)c1)C1CC1 [Compound 332, N-{4-fluoro-3-[5-(3-fluoropyridin-2-yl)-2H-pyrazolo[3,4-b]pyridin-2-yl]phenyl}cyclopropanecarboxamide]	28 nM	75 nM	15 nM	38 nM
Cc1cccnc1-c1cnc2nn(-c3cc(NC(=O)c4oc(CO)nc4C)ccc3F)cc2c1 [Compound 334, N-(4-fluoro-3-(5-(3-methylpyridin-2-yl)-2H-pyrazolo[3,4-b]pyridin-2-yl)phenyl)-2-(hydroxymethyl)-4-methyloxazole-5-carboxamide]	236 nM	1870 nM	1460 nM	269 nM
Cc1nc(C)c(C(=O)Nc2ccc(F)c(-n3cc4cc(-c5ncccc5CO)cnc4n3)c2)o1 [Compound 335]	13 nM	111 nM	470 nM	36 nM
O=C(Nc1ccc(F)c(-n2cc3cc(-c4ccccn4)cnc3n2)c1)N1CCCC1 [Compound 336, N-{4-fluoro-3-[5-(pyridin-2-yl)-2H-pyrazolo[3,4-b]pyridin-2-yl]phenyl}pyrrolidine-1-carboxamide]	2 nM	4 nM	1 nM	1 nM
O=C(Nc1ccc(F)c(-n2cc3cc(N4CC(F)(F)C4)cnc3n2)c1)N1CCCC1 [Compound 338, N-{3-[5-(3,3-difluoroazetidin-1-yl)-2H-pyrazolo[3,4-b]pyridin-2-yl]-4-fluorophenyl}pyrrolidine-1-carboxamide]	5 nM	2 nM	3 nM	3 nM
O=C(Nc1ccnc(-n2cc3cc(Br)cnc3n2)c1)N1CC[C@@H](F)C1 [Compound 340, (3R)-N-(2-{5-bromo-2H-pyrazolo[3,4-b]pyridin-2-yl}pyridin-4-yl)-3-fluoropyrrolidine-1-carboxamide]	225 nM	87 nM	61 nM	35 nM
O=C(Nc1ccnc(-n2cc3cc(-c4ccccn4)cnc3n2)c1)N1CCC1 [Compound 341, N-{2-[5-(pyridin-2-yl)-2H-pyrazolo[3,4-b]pyridin-2-yl]pyridin-4-yl}azetidine-1-carboxamide]	6 nM	33 nM	10 nM	9 nM
O=C(Nc1ccnc(-n2cc3cc(-c4ccccn4)cnc3n2)c1)N1CC(F)C1 [Compound 342, 3-fluoro-N-{2-[5-(pyridin-2-yl)-2H-pyrazolo[3,4-b]pyridin-2-yl]pyridin-4-yl}azetidine-1-carboxamide]	7 nM	24 nM	17 nM	10 nM
O=C(Nc1cccc(-n2cc3cc(N4CC(F)(F)C4)cnc3n2)c1)N1CCC1 [Compound 343, N-{3-[5-(3,3-difluoroazetidin-1-yl)-2H-pyrazolo[3,4-b]pyridin-2-yl]phenyl}azetidine-1-carboxamide]	10 nM	32 nM	14 nM	9 nM
O=C(Nc1cccc(-n2cc3cc(-c4ccccn4)cnc3n2)c1)N1CCC1 [Compound 344, N-{3-[5-(pyridin-2-yl)-2H-pyrazolo[3,4-b]pyridin-2-yl]phenyl}azetidine-1-carboxamide]	2 nM	5 nM	3 nM	1 nM
O=C(Nc1ccc(F)c(-n2cc3cc(-c4ccccn4)cnc3n2)c1)c1cnccn1 [Compound 345, N-{4-fluoro-3-[5-(pyridin-2-yl)-2H-pyrazolo[3,4-b]pyridin-2-yl]phenyl}pyrazine-2-carboxamide]	11 nM	33 nM	4 nM	5 nM
O=C(Nc1ccc(F)c(-n2cc3cc(-c4ccccn4)cnc3n2)c1)C1CC12CC2 (stereo not shown) [Compound 346, N-{4-fluoro-3-[5-(pyridin-2-yl)-2H-pyrazolo[3,4-b]pyridin-2-yl]phenyl}spiro[2.2]pentane-1-carboxamide]	239 nM	155 nM	34 nM	41 nM
CC1(C)C=C(C(=O)Nc2ccc(F)c(-n3cc4cc(-c5ccccn5)cnc4n3)c2)C1 [Compound 347, N-{4-fluoro-3-[5-(pyridin-2-yl)-2H-pyrazolo[3,4-b]pyridin-2-yl]phenyl}-3,3-dimethylcyclobut-1-ene-1-carboxamide]	7 nM	15 nM	2 nM	7 nM
N#CC1(C(=O)Nc2ccc(F)c(-n3cc4cc(-c5ccccn5)cnc4n3)c2)CC1 [Compound 348, 1-cyano-N-{4-fluoro-3-[5-(pyridin-2-yl)-2H-pyrazolo[3,4-b]pyridin-2-yl]phenyl}cyclopropane-1-carboxamide]	347 nM	963 nM	142 nM	112 nM
Cc1cccnc1-c1cnc2nn(-c3cc(NC(=O)C4=CC(C)(C)C4)ccc3F)cc2c1 [Compound 350, N-{4-fluoro-3-[5-(3-methylpyridin-2-yl)-2H-pyrazolo[3,4-b]pyridin-2-yl]phenyl}-3,3-dimethylcyclobut-1-ene-1-carboxamide]	16 nM	58 nM	16 nM	28 nM
Cc1nc(C)c(C(=O)Nc2ccc(F)c(-n3cc4cc(C(C)C)cnc4n3)c2)o1 [Compound 351, N-(4-fluoro-3-(5-isopropyl-2H-pyrazolo[3,4-b]pyridin-2-yl)phenyl)-2,4-dimethyloxazole-5-carboxamide]	49 nM	24 nM	15 nM	31 nM
